Assay results as given in patent US20230146455A1, “TREATMENT OF INFLAMMATORY DISEASES WITH PEPTIDES AND PHARMACEUTICAL COMPOSITIONS” (Yuyu Pharma, Inc., priority 2020, published 2023).
Several values for one entry are separate records, joined by “and”; a condition that tells them apart may be missing. Equal entries are not always repeated. Where a SMILES comes first, the peptide text is derived from it. [ ]: non-standard residue; d: D form. Hyp = O=C(O)[C@@H]1C[C@@H](O)CN1

Key:
IL-1 beta/IL-1F2 = experiment: Example 8 main study Luminex, LPS hPBMCs: IL-1 beta/IL-1F2; assay type: cell-based, human
Experimental: (§1) Human PBMCs were pretreated with YY-101, YDE-011, YDE-043 or reference compound; Xiidra® at various concentration (ranging from […] to 500 nM) for 2 h before stimulation. An equal volume of 0.5% DMSO was used as a vehicle control. Then, the cells were treated with LPS at 5 ug/ml, which was selected based on the pilot study. The supernatants from treated cells were harvested at 24 h and placed in a 96 well for Luminex cytokine & chemokine profiling using a Luminex 200 multiplex assay (Luminex; R&D system, USA).
(§2) The main study arm with triplicate wells per group in a 24-well plate: • 1. Blank • 2. PBMC: 0.5% DMSO • 3. PBMC+LPS (5 ug/ml) • 4. PBMC+YY-101 500 nM • 5. PBMC+YY-101 50 nM • 6. PBMC+YY-101 5 nM • 7. PBMC+YY-101 0.5 nM • 8. PBMC+LPS (5 ug/ml)+Xiidra® 500 nM • 9. PBMC+LPS (5 ug/ml)+Xiidra® 50 nM • 10. PBMC+LPS (5 ug/ml)+Xiidra® 5 nM • 11. PBMC+LPS (5 ug/ml)+Xiidra® 0.5 nM • 12. PBMC+LPS (5 ug/ml)+Xiidra® 0.05 nM • 13. PBMC+LPS (5 ug/ml)+Xiidra® 0.005 nM • 14. PBMC+LPS (5 ug/ml)+YY-101 500 nM • 15. PBMC+LPS (5 ug/ml)+YY-101 50 nM • 16. PBMC+LPS (5 ug/ml)+YY-101 5 nM • 17. PBMC+LPS (5 ug/ml)+YY-101 0.5 nM • 18. PBMC+LPS (5 ug/ml)+YY-101 0.05 nM • 19. PBMC+LPS (5 ug/ml)+YY-101 0.005 nM • 20. PBMC+LPS (5 ug/ml)+YDE-011 500 nM • 21. PBMC+LPS (5 ug/ml)+YDE-011 50 nM • 22. PBMC+LPS (5 ug/ml)+YDE-011 5 nM • 23. PBMC+LPS (5 ug/ml)+YDE-011 0.5 nM • 24. PBMC+LPS (5 ug/ml)+YDE-011 0.05 nM • 25. PBMC+LPS (5 ug/ml)+YDE-011 0.005 nM • 26. PBMC+LPS (5 ug/ml)+YDE-043 500 nM • 27. PBMC+LPS (5 ug/ml)+YDE-043 50 nM • 28. PBMC+LPS (5 ug/ml)+YDE-043 5 nM • 29. PBMC+LPS (5 ug/ml)+YDE-043 0.5 nM • 30. PBMC+LPS (5 ug/ml)+YDE-043 0.05 nM • 31. PBMC+LPS (5 ug/ml)+YDE-043 0.005 nM
(§3) Multiplex assay was used to measure 30 cytokines and chemokines. The 1:200 diluted cell supernatant and serial dilution of the standard were dispensed into a 96 well plate at 50 ul/well. Then, the pre-mixed cocktail of antibody-coated magnetic beads was dispensed at 50 ul/well and incubated at room temperature for 2 h in a horizontal orbital microplate shaker at 800±500 rpm. The beads were washed using a magnetic device to prevent loss. The biotin-antibody was dispensed in 50 ul of each well and incubated at room temperature for 1 h in a shaker at 800±500 rpm. After washing, streptavidin-PE was added at 50 ul/well and incubated at room temperature for 30 min in a shaker under the same conditions. Finally, after washing, wash buffer (100 ul/well) was added to the plate and incubated in a shaker for 2 min. The Luminex™ 200 setting were set according to the manufacturer's protocol. The data was calculated with a standard five-parameter logistic nonlinear regression analysis of the data (xPonent software 4.2, USA). Results were presented as concentration (ng/ml or pg/ml).

CCL3/MIP-1 alpha = experiment: Example 8 main study Luminex, LPS hPBMCs: CCL3/MIP-1 alpha; assay type: cell-based, human
Experimental: as §1, §2, §3

[1] = PBMC + LPS(5 ug/ml) + test article 0.005 nM, Mean
[2] = PBMC + LPS(5 ug/ml) + test article 0.005 nM, individual replicates
[3] = PBMC + LPS(5 ug/ml) + test article 0.05 nM, Mean
[4] = PBMC + LPS(5 ug/ml) + test article 0.05 nM, individual replicates
[5] = PBMC + LPS(5 ug/ml) + test article 0.5 nM, Mean
[6] = PBMC + LPS(5 ug/ml) + test article 0.5 nM, individual replicates
[7] = PBMC + LPS(5 ug/ml) + test article 5 nM, Mean
[8] = PBMC + LPS(5 ug/ml) + test article 5 nM, individual replicates
[9] = PBMC + LPS(5 ug/ml) + test article 50 nM, Mean
[10] = PBMC + LPS(5 ug/ml) + test article 50 nM, individual replicates
[11] = PBMC + LPS(5 ug/ml) + test article 500 nM, Mean
[12] = PBMC + LPS(5 ug/ml) + test article 500 nM, individual replicates
[13] = PBMC + LPS(5 ug/ml) + test article 0.005 nM, single replicates
[14] = PBMC + LPS(5 ug/ml) + test article 0.05 nM, single replicates
[15] = PBMC + LPS(5 ug/ml) + test article 0.5 nM, single replicates
[16] = PBMC + LPS(5 ug/ml) + test article 5 nM, single replicates
[17] = PBMC + LPS(5 ug/ml) + test article 50 nM, single replicates
[18] = PBMC + LPS(5 ug/ml) + test article 500 nM, single replicates

## CC(C)C[C@H](NC(=O)CNC(=O)[C@H](CC(C)C)NC(=O)[C@H](CCC(N)=O)NC(=O)CNC(=O)[C@@H]1C[C@@H](O)CN1)C(=O)N[C@@H](C)C(=O)NCC(=O)N1CCC[C@H]1C(=O)N[C@@H](CCCCN)C(=O)O [YDE-011] (H-[Hyp]GQLGLAGPK-OH)
IL-1 beta/IL-1F2; [1]
  IL-1 beta/IL-1F2 Concentration: 5171.7 pg/mL
  IL-1 beta/IL-1F2 MFI: 94.5
IL-1 beta/IL-1F2; [2]
  IL-1 beta/IL-1F2 Concentration: 5350.1 pg/mL and 5023.0 pg/mL and 5141.9 pg/mL
  IL-1 beta/IL-1F2 MFI: 97.5 and 92.0 and 94.0
IL-1 beta/IL-1F2; [3]
  IL-1 beta/IL-1F2 Concentration: 5836.1 pg/mL
  IL-1 beta/IL-1F2 MFI: 105.7
IL-1 beta/IL-1F2; [4]
  IL-1 beta/IL-1F2 Concentration: 5796.4 pg/mL and 6094.1 pg/mL and 5617.8 pg/mL
  IL-1 beta/IL-1F2 MFI: 105.0 and 110.0 and 102.0
IL-1 beta/IL-1F2; [5]
  IL-1 beta/IL-1F2 Concentration: 4864.5 pg/mL
  IL-1 beta/IL-1F2 MFI: 89.3
IL-1 beta/IL-1F2; [6]
  IL-1 beta/IL-1F2 Concentration: 4844.7 pg/mL and 4963.6 pg/mL and 4785.3 pg/mL
  IL-1 beta/IL-1F2 MFI: 89.0 and 91.0 and 88.0
IL-1 beta/IL-1F2; [7]
  IL-1 beta/IL-1F2 Concentration: 4350.3 pg/mL
  IL-1 beta/IL-1F2 MFI: 80.7
IL-1 beta/IL-1F2; [8]
  IL-1 beta/IL-1F2 Concentration: 3539.2 pg/mL and 4250.8 pg/mL and 5260.9 pg/mL
  IL-1 beta/IL-1F2 MFI: 67.0 and 79.0 and 96.0
IL-1 beta/IL-1F2; [9]
  IL-1 beta/IL-1F2 Concentration: 4786.7 pg/mL
  IL-1 beta/IL-1F2 MFI: 88.0
IL-1 beta/IL-1F2; [10]
  IL-1 beta/IL-1F2 Concentration: 5558.3 pg/mL and 5617.8 pg/mL and 3183.9 pg/mL
  IL-1 beta/IL-1F2 MFI: 101.0 and 102.0 and 61.0
IL-1 beta/IL-1F2; [11]
  IL-1 beta/IL-1F2 Concentration: 4262.6 pg/mL
  IL-1 beta/IL-1F2 MFI: 79.2
IL-1 beta/IL-1F2; [12]
  IL-1 beta/IL-1F2 Concentration: 5796.4 pg/mL and 2681.1 pg/mL and 4310.2 pg/mL
  IL-1 beta/IL-1F2 MFI: 105.0 and 52.5 and 80.0
CCL3/MIP-1 alpha; [1]
  CCL3/MIP-1 alpha Concentration: 30631.2 pg/mL
  CCL3/MIP-1 alpha MFI: 40.8
CCL3/MIP-1 alpha; [13]
  CCL3/MIP-1 alpha Concentration: 31818.4 pg/mL and 28790.7 pg/mL and 31284.6 pg/mL
  CCL3/MIP-1 alpha MFI: 43.0 and 37.5 and 42.0
CCL3/MIP-1 alpha; [3]
  CCL3/MIP-1 alpha Concentration: 34293.4 pg/mL
  CCL3/MIP-1 alpha MFI: 47.8
CCL3/MIP-1 alpha; [14]
  CCL3/MIP-1 alpha Concentration: 34390.9 pg/mL and 32865.8 pg/mL and 35623.4 pg/mL
  CCL3/MIP-1 alpha MFI: 48.0 and 45.0 and 50.5
CCL3/MIP-1 alpha; [5]
  CCL3/MIP-1 alpha Concentration: 30465.1 pg/mL
  CCL3/MIP-1 alpha MFI: 40.5
CCL3/MIP-1 alpha; [15]
  CCL3/MIP-1 alpha Concentration: 31284.6 pg/mL and 29639.8 pg/mL and 30470.7 pg/mL
  CCL3/MIP-1 alpha MFI: 42.0 and 39.0 and 40.5
CCL3/MIP-1 alpha; [7]
  CCL3/MIP-1 alpha Concentration: 27362.3 pg/mL
  CCL3/MIP-1 alpha MFI: 35.2
CCL3/MIP-1 alpha; [16]
  CCL3/MIP-1 alpha Concentration: 25497.0 pg/mL and 26119.3 pg/mL and 30470.7 pg/mL
  CCL3/MIP-1 alpha MFI: 32.0 and 33.0 and 40.5
CCL3/MIP-1 alpha; [9]
  CCL3/MIP-1 alpha Concentration: 28334.6 pg/mL
  CCL3/MIP-1 alpha MFI: 37.3
CCL3/MIP-1 alpha; [17]
  CCL3/MIP-1 alpha Concentration: 32865.8 pg/mL and 21122.8 pg/mL and 31015.1 pg/mL
  CCL3/MIP-1 alpha MFI: 45.0 and 25.5 and 41.5
CCL3/MIP-1 alpha; [11]
  CCL3/MIP-1 alpha Concentration: 27851.5 pg/mL
  CCL3/MIP-1 alpha MFI: 36.8
CCL3/MIP-1 alpha; [18]
  CCL3/MIP-1 alpha Concentration: 34390.9 pg/mL and 19244.9 pg/mL and 29918.7 pg/mL
  CCL3/MIP-1 alpha MFI: 48.0 and 23.0 and 39.5
CCL3/MIP-1 alpha; at as low as 5 μM, LPS 5 ug/mL 24 hrs
  LPS-induced CCL-3 (in words): significantly reduced
